Assay: gradient 5% acetonitrile 3 min, to 50% in 2 min, to 85% in 15 min, held 3 min, 100 µL/min
Details: column: Zorbax Extend-C18 2.1 x 50 mm; eluents: water / acetonitrile, 0.1% formic acid
How it was run: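 Retention times come from adduct peaks that were picked computationally and then checked by hand. The standards, pure and pooled in mixtures of ~100 molecules, were run on a Zorbax Extend-C18 column (2.1 × 50 mm, 1.8 μm) at 100 μL/min with water and acetonitrile, each with 0.1% formic acid. Detection was by quadrupole time-of-flight mass spectrometry in positive and negative ionization mode, with a dead volume of 40 μL and a dwell volume of 900 μL.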

Row | Compound | RP-LC retention time
1 | Cc1ccc(N2CCN(C(=O)c3cn(-c4cc(N5CCCCC5)ncn4)cn3)CC2)cc1 | 994 s
2 | COc1ccc(-c2nc(-c3ccc4ncn(C)c4c3)no2)cc1 | 732 s
3 | CC(C)c1noc(CC2CCN(C(=O)c3ccsc3)CC2)n1 | 819 s
4 | CCCC(=O)N1CCc2c([nH]c3ccccc23)C1c1ccc(Cl)cc1 (stereo not given) | 578 s
5 | COc1ccc(-n2c(=O)c(C(=O)Nc3ccc(OC)c(F)c3)c(O)c3cccnc32)cc1 | 1200 s
6 | CCN1CCCn2cc(S(=O)(=O)Nc3cccc(C)c3)cc2C1=O | 724 s
7 | CC(C)(C)c1csc(-c2csc(S(=O)(=O)NC3CCCCCC3)c2)n1 | 1010 s
8 | O=C(Cn1ncc2c(c1=O)N(C1CC1)C(=O)CS2)NCc1ccc2c(c1)OCO2 | 682 s
9 | Cc1ccc(-c2cc3c(=O)n(Cc4noc(CN5CCc6ccccc65)n4)ccn3n2)cc1 | 1100 s
10 | CCCCNC(=O)Cn1c(=O)c2cnc(-c3ccccc3)nc2n(CC)c1=O | 937 s
11 | COc1ccc2c(c1)C1(CCN(C(=O)c3cccc(OC)c3OC)C1)C(=O)N2C (stereo not given) | 737 s
12 | CCOC(=O)C1CCN(C(=O)c2n[nH]c(=O)c3ccccc23)CC1 | 677 s
13 | Cc1noc(-c2ccc(-n3cnc(C(=O)NCC4CC4)c3)nc2)n1 | 727 s
14 | Fc1ccc(C2CCNCC2COc2ccc3c(c2)OCO3)cc1 (stereo not given) | 778 s
15 | CC1(C(=O)Oc2ccc(Cl)cc2)Cc2ccccc2C(=O)O1 (stereo not given) | 942 s
16 | Cc1ccc(CN2CCn3c(nnc3[C@@H]3C[C@@H](O)CN3Cc3cccnc3)C2)s1 | 566 s
17 | CCN(CC)C(=O)c1cc2c(s1)CCC(C(=O)Nc1ccc3c(c1)OCO3)C2 (stereo not given) | 860 s
18 | Cc1nc2sc(C)c(C)n2c(=O)c1NC(=O)c1ccc(Br)o1 | 688 s
19 | Cc1cccc(NS(=O)(=O)c2cc(-c3[nH]ncc3C(=O)N(C)C)oc2C)c1 | 678 s
20 | CCCCN(C)S(=O)(=O)c1ccccc1-c1nc(-c2ccc(F)cc2)no1 | 1110 s
21 | Cn1nc(-c2nnc(-c3ccccc3Cl)o2)c2c1CCN(C(=O)Nc1ccccc1)C2 | 849 s
22 | COc1ccc(C)cc1NC(=O)C1CCN(S(=O)(=O)c2cc(C(=O)N3CCCC3)n(C)c2)CC1 | 809 s
23 | COCCNCc1ccc(-c2ccc(Br)cc2)o1 | 674 s
24 | CCCNC(=O)C1CCN(c2ccc(SCC(=O)NCc3ccc4c(c3)OCO4)nn2)CC1 | 606 s

Row | Compound | RP-LC retention time
25 | CCc1ccc(CNC(=O)CN2CCc3ccccc3C2C(=O)N2CCCC2)cc1 (stereo not given) | 860 s
26 | CCc1nc2cc(-c3noc(-c4ccco4)n3)ccc2o1 | 968 s
27 | CCN1CCN(CCNC(=O)c2ccc3c(c2)NC(=O)C2CCCCN32)CC1 (stereo not given) | 574 s
28 | Cc1cc(=O)oc2c(C)c(OCC(O)CN3CCN(c4ccccn4)CC3)ccc12 (stereo not given) | 572 s
29 | CCCSCCCNC(=O)Cn1nc(-n2cccc2)c2c(C)cc(C)nc21 | 1050 s
30 | C=CCc1ccccc1OCCn1c(CN(C)C(=O)c2ccco2)nc2ccccc21 | 702 s
31 | CN(Cc1cccn1C)C(=O)NC(C)(C)C | 805 s
32 | CCN1C(=O)C(C)(C(=O)Nc2ccc(C(=O)OC)cc2)Oc2cccnc21 (stereo not given) | 861 s
33 | Cc1cc2n(n1)CCCN2C(=O)CCC(=O)N1CCN(c2ccccn2)CC1 | 555 s
34 | CCC(c1cccs1)N1C(=O)[C@H]2CN(S(=O)(=O)c3ccc(F)cc3F)C[C@H]2C1=O (stereo not given in full) | 1000 s
35 | CCN1C(=O)c2cccnc2Sc2cc(C(=O)N3CCCCC3)ccc21 | 730 s
36 | Cc1ccc(-c2cc3n(n2)CCCN(C(=O)c2ccc(C)s2)C3)cc1 | 948 s
37 | CCc1nc(OCC(=O)NCc2ccc(SC)cc2)c2ccccc2n1 | 814 s
38 | OC[C@@H]1CNC[C@H]1C1CCN(Cc2ccc(OC(F)(F)F)cc2)CC1 | 591 s
39 | O=C(C1=NN(Cc2ccccc2)c2cc(Cl)ccc2S1(=O)=O)N1CCOCC1 | 864 s
40 | Cc1sc(-c2nnc(C3CC3)o2)cc1NC(=O)C(C)c1ccccc1 (stereo not given) | 998 s
41 | Cc1nn(C(C)C(=O)Nc2cccc(Cl)c2)c(=O)c2c(-n3cccc3)n(-c3ccccc3)nc12 (stereo not given) | 1200 s
42 | O=C(NCCn1c(=O)n(Cc2ccc(F)cc2)c2cccnc21)c1ccc2c(c1)OCO2 | 778 s
43 | CCN(CC)CCCNC(=O)c1noc2c1CCCCC2 | 632 s
44 | CCN(CC)c1nc2cc(C(=O)OC)ccc2c(=O)n1-c1cc(OC)cc(OC)c1 | 1090 s
45 | COC(=O)c1c(C)[nH]c(C(=O)N2CCCC(C(=O)N3CCN(c4cccc(Cl)c4)CC3)C2)c1C (stereo not given) | 952 s
46 | O=C(CN1CCC(c2nc(-c3cccc(F)c3)no2)CC1)Nc1ccc2c(c1)OCO2 | 719 s
47 | CCCS(=O)(=O)N1CCOc2ccc(NC(=O)NCC)cc2C1 | 696 s

The remaining lines, values ahead:

Row | RP-LC retention time | Compound
48 | 874 s | COCCCn1c(=O)c2ccccc2n(Cc2nc(-c3ccccc3OC)no2)c1=O
49 | 680 s | C=CCN1CCN(C(=O)c2cn(-c3ccc(-c4nc(C(C)(C)C)no4)cn3)cn2)CC1
50 | 699 s | Cc1nnc(C2CCCCCN2C(=O)c2ccoc2C)o1 (stereo not given)
51 | 734 s | O=C1COc2cc(S(=O)(=O)N3CCCC3C(=O)Nc3ccc4c(c3)OCCO4)c(Cl)cc2N1 (stereo not given)
52 | 588 s | O[C@@H]1C[C@@H](c2nnc3n2CCN(Cc2cccc(F)c2)C3)N(Cc2cccnc2)C1
53 | 924 s | Cc1noc(C2(NC(=O)c3ccc(Br)cc3)CCCCC2)n1
54 | 648 s | CC(C)NC(=O)N1CCC(c2noc(-c3ccccn3)n2)C1 (stereo not given)
55 | 945 s | CCOc1ccccc1CNC(=O)c1nnc(-c2ccc(S(=O)(=O)N(C)C)cc2)o1
56 | 579 s | Cn1c(SCC(=O)Nc2ncccn2)nnc1-c1ccc2c(c1)OCO2
57 | 607 s | Cc1cccc(CC(=O)NCCSc2ncc(-c3ccccc3)[nH]2)c1
58 | 928 s | Cn1nc(-c2nnc(-c3ccccc3F)o2)c2c1CCN(S(=O)(=O)c1ccccc1Cl)C2
59 | 804 s | CCc1ccc(C(=O)CC2(O)C(=O)Nc3ccc(C)cc32)cc1 (stereo not given)
60 | 554 s | CC(C)n1c(=O)c(NCc2ccc(N3CCCCC3)cc2)nc2ccncc21
61 | 696 s | CN(CCCNC(=O)C1CCCN(S(=O)(=O)c2ccc3c(ccn3C)c2)C1)Cc1ccccc1 (stereo not given)
62 | 714 s | CCCC(=O)NC1CCN(c2ccc(C)cc2)C1=O (stereo not given)
63 | 916 s | CCOc1ccc(Cl)cc1S(=O)(=O)N1CCC(C(=O)NC2CCCC2)CC1
64 | 645 s | COc1ccc(CC(=O)Nc2c(-c3ccc(F)cc3)nc3ccccn23)cc1
65 | 644 s | CN1CCC2(CC1)CN(C(=O)Cn1c(=O)oc3ccccc31)Cc1ccccc1O2
66 | 1130 s | COC(=O)C1(C)CCCC2(C)c3cc(OC)ccc3C(=O)C(Br)C12 (stereo not given)
67 | 683 s | CCOC(=O)c1c(C)[nH]c(C(=O)N2CCC(CC(=O)NC(C)C)CC2)c1C
68 | 678 s | CCCNS(=O)(=O)c1cc2n(c1)CCCN(C(C)C)C2=O
69 | 1010 s | CCOC(=O)[C@H](C)C[C@@H](Cc1ccc(-c2ccccc2)cc1)NC(=O)CCC(=O)O

Row | RP-LC retention time | Compound
70 | 643 s | Cn1c(C(=O)NCc2ccccc2Cl)cc2ccncc21
71 | 630 s | C=CCc1cc(C)ccc1OCC(O)Cn1cnc2ccccc21 (stereo not given)
72 | 738 s | CCNC(=O)c1nc(-c2ccc(C)cc2)n2c1CCCCC2
73 | 1030 s | CCc1noc(C2(NC(=O)c3ccc(F)c(Cl)c3)CCCCC2)n1
74 | 632 s | Cc1ccc(C)c(NC(=O)N2CCN(c3cc(-c4cccnc4)[nH]n3)CC2)c1
75 | 701 s | CC(C)n1cc(CN2CCCCCNC(=O)[C@@H]3CCC[C@@H]32)c2ccccc21
76 | 948 s | O=C(Nc1ccccc1C(F)(F)F)N1CCc2nc(-c3ccccc3)ncc2C1
77 | 710 s | O=C(NCCc1c[nH]c2ccccc12)C1CC(=O)N(c2n[nH]c3cccc(F)c23)C1 (stereo not given)
78 | 559 s | Cc1cnc(-c2ccccc2)n1C1CN(Cc2cccc(C#N)c2)C1
79 | 870 s | Cc1ccc(S(=O)(=O)N2CCN(c3ccc(-c4ccc(F)cc4)nn3)CC2)s1
80 | 696 s | CS(=O)(=O)N1CCOc2ccc(NC(=O)C3CC3)cc2C1
81 | 741 s | Cc1ccc(CNC(=O)C2CCCN(c3cnc4nc(C)c(C)nc4c3)C2)cc1 (stereo not given)
82 | 526 s | COCCN1CCC(N2CCCN(C(=O)NCCc3ccccc3)CC2)C1=O (stereo not given)
83 | 959 s | Cn1nc(-c2nc(C3CC3)no2)c2c1CCN(C(=O)Nc1ccc(C(F)(F)F)cc1)C2
84 | 802 s | O=C(NCc1cc(F)cc(F)c1)C1CCN(C(=O)c2ncn3c2COC(c2ccc(F)cc2)C3)CC1 (stereo not given)
85 | 796 s | Cc1ccccc1-c1noc(N2CCC(C(=O)N3CCOCC3)CC2)n1
86 | 858 s | COc1ccccc1CNC(=O)CN1CCN(Cc2ccc(F)cc2Cl)C1=O
87 | 1140 s | O=C(c1cccc(Cl)c1)N1CCc2nc(-c3ccc(Cl)cc3)ncc2C1
88 | 1130 s | COc1nc2c(c(C)nn2-c2ccccc2)c(C)c1CCC(=O)NCCc1c[nH]c2ccccc12
89 | 1060 s | CSc1ccc(-c2nc3cnccn3c2Nc2cccc(Cl)c2C)cc1
90 | 745 s | CCc1nnc(-c2ccc3ccn(CC(=O)NCc4ccc(OC)c(OC)c4)c3c2)o1

Reference: the METLIN SMRT retention time set (Domingo-Almenara et al. 2019)
